Values quoted from earlier work, collected in article PMC9369419 (International Journal of Molecular Sciences, 2022).

What was measured:
Settings in all cases: recombinant rat iGluR, mean ± SEM; cited from earlier work
GluK1 = target: T1, GluK1 (Rattus norvegicus, UniProt P22756)
T1 construct: made in house; host or cells: Sf9 insect cells (membranes)

GluK2 = target: T2, GluK2 (Rattus norvegicus, UniProt P42260)
T2 construct: made in house; host or cells: Sf9 insect cells (membranes)

GluK3 = target: T3, GluK3 (Rattus norvegicus, UniProt P42264)
T3 construct: made in house; host or cells: Sf9 insect cells (membranes)
T3 sequence (P42264 32-919): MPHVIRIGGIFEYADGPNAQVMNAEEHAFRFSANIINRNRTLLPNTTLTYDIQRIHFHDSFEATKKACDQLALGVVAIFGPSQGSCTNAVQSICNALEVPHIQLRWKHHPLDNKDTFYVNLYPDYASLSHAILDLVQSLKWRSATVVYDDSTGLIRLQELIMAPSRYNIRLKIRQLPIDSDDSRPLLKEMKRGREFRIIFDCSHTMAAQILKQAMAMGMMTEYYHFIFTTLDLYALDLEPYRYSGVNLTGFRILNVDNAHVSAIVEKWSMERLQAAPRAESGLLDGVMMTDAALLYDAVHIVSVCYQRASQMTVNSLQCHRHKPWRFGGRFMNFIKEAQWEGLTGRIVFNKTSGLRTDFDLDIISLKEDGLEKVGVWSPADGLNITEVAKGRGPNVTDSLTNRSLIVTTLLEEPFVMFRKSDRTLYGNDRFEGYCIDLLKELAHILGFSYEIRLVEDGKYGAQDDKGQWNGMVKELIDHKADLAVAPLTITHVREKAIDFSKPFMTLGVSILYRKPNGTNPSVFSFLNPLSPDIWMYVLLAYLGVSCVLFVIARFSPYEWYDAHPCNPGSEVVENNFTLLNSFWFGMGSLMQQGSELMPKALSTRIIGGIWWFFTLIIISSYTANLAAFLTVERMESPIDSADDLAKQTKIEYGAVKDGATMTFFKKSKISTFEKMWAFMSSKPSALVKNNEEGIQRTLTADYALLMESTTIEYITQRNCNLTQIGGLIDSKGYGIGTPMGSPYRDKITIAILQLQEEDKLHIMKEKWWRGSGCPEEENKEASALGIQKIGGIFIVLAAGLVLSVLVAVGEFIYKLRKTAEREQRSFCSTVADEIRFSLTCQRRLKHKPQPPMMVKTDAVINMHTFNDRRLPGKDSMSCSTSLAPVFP

GluK5 = target: T4, GluK5 (Rattus norvegicus, UniProt Q63273)
T4 construct: made in house; host or cells: Sf9 insect cells (membranes)
T4 sequence (Q63273 15-979): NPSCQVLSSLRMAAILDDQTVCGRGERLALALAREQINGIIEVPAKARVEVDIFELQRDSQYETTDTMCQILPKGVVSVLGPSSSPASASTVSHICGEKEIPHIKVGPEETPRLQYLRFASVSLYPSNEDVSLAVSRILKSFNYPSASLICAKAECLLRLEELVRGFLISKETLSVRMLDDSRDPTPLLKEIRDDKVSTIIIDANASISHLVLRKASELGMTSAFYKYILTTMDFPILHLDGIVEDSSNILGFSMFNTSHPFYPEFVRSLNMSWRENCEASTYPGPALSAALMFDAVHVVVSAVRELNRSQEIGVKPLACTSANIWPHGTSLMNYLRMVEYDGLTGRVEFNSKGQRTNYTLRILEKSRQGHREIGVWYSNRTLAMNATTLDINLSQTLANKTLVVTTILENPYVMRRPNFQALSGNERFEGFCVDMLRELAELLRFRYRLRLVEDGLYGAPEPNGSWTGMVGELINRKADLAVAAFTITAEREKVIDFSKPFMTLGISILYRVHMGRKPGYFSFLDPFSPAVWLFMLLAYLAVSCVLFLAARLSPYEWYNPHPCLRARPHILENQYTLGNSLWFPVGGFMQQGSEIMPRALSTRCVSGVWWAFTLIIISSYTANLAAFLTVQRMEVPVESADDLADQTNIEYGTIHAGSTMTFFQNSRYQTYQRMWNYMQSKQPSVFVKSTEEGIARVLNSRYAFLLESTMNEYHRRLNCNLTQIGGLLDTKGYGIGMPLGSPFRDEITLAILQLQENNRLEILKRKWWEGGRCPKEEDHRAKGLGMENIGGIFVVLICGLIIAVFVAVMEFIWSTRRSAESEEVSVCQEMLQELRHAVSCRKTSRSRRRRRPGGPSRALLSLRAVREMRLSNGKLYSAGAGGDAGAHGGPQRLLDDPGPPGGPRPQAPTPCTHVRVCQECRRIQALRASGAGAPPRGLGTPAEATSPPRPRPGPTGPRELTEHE

GluA2 = target: T5, GluA2 (Rattus norvegicus, UniProt P19491)
T5 construct: made in house; host or cells: Sf9 insect cells (membranes)
T5 sequence (P19491 22-883): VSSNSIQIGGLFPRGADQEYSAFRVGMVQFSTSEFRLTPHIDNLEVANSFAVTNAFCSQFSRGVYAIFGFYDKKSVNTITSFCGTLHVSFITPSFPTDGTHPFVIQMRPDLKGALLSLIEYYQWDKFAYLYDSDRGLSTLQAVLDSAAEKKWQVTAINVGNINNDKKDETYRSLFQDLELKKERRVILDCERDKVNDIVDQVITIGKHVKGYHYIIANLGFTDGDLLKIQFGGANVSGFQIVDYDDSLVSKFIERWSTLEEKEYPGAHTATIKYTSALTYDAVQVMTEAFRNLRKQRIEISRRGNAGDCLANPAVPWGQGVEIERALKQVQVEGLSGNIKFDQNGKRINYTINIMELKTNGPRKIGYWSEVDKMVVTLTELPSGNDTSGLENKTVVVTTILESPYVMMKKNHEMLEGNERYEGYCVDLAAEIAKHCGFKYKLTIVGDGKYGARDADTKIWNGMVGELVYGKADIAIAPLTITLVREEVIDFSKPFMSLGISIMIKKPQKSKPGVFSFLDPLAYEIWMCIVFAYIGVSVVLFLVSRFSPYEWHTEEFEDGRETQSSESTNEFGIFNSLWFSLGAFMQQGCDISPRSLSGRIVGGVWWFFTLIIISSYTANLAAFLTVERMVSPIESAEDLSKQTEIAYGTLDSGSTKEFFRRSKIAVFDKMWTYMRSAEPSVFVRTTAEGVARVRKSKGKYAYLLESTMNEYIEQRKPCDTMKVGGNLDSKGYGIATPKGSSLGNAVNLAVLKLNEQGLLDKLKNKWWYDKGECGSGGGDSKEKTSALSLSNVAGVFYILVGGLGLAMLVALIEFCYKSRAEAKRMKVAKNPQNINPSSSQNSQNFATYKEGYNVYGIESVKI

T1 sequence (P22756 31-949): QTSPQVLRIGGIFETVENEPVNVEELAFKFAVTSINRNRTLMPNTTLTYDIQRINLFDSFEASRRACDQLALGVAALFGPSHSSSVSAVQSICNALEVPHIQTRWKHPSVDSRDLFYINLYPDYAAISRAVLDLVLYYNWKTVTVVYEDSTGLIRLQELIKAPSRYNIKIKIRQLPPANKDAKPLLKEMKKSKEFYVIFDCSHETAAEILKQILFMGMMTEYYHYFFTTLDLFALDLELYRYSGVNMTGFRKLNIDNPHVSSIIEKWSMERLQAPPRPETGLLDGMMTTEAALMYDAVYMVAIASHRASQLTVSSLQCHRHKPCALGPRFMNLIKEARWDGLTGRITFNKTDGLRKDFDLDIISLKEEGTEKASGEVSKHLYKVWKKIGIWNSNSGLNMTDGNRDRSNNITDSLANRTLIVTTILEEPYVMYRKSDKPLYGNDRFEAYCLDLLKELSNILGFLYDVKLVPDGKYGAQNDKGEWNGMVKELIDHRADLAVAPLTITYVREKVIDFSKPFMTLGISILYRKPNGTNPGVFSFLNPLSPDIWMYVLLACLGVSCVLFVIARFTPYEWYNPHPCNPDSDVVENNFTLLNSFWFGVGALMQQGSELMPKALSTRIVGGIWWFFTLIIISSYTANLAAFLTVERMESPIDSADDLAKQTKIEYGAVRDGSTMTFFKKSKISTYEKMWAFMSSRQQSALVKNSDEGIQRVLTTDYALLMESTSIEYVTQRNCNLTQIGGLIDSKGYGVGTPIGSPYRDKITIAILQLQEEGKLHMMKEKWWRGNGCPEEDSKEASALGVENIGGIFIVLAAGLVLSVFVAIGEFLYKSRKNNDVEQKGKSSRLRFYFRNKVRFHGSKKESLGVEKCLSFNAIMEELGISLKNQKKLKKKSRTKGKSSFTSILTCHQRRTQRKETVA
T2 sequence (P42260 32-908): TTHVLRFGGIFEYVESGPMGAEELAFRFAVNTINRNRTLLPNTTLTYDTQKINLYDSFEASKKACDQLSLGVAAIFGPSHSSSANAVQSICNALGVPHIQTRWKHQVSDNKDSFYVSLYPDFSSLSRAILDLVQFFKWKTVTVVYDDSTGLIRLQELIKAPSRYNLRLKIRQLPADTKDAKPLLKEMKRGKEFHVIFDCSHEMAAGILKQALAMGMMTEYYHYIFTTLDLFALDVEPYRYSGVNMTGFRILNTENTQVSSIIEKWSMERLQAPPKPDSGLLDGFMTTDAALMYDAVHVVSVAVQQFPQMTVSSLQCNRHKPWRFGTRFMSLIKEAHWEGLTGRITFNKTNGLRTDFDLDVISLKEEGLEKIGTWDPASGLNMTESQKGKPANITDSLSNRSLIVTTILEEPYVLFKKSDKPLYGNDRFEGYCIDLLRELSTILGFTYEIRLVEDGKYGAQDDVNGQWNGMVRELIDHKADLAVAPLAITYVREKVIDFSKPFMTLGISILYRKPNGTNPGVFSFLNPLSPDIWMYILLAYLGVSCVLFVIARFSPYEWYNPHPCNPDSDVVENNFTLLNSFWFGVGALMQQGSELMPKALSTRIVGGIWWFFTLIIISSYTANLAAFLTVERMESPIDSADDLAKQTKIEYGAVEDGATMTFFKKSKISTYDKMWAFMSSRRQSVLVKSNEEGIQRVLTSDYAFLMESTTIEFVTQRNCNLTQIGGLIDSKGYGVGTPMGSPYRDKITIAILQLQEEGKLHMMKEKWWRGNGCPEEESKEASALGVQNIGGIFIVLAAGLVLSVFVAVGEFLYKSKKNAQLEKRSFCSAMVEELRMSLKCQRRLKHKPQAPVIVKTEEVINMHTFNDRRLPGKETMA

| SMILES | Ki (GluK1) [µM] | Ki (GluK2) [µM] | Ki (GluK3) [µM] | Ki (GluK5) [µM] | Ki (GluA2) [µM] |
| --- | --- | --- | --- | --- | --- |
| O=c1[nH]c2cc([N+](=O)[O-])c([N+](=O)[O-])cc2[nH]c1=O [DNQX] | 0.65 ± 0.03 | 2.1 ± 0.3 | 0.36 ± 0.03 | 7.1 ± 0.9 | – |
| O=C(Nn1c(=O)c(=O)[nH]c2cc(C#Cc3ccccc3)ccc21)c1ccccc1 [Compound 1, N-(2,3-dioxo-6-(phenylethynyl)-3,4-dihydroquinoxalin-1(2H)-yl)benzamide] | > 100 | ~100 | – | > 100 | 24 ± 6 |
